Source: patent EP0688331B1, “NEW SULFATED LYSO-GANGLIOSIDE DERIVATIVES” (FIDIA S.p.A., priority 1993, dated 1994)
Where two headings read alike, the source gives them in different places.

What was measured:
[1] = test system: cerebellar granule cells; details: read-out: ED50 (antineurotoxic activity); 2 hrs pretreatment, then 100 µM glutamate 60 minutes; MTT after 24 hr
Experimental: Primary cultures of cerebellar granule cells have been prepared from 8-day-old Sprague-Dawley rats.
Neurons have been grown in 35 mm dishes for 11-13 days and kept in a humidified environment (95% air and 5% CO2) at 37° C. […] Glial proliferation was prevented by cytosine arabinofuranoside.
Concentrations from 100 µM to 5 µM have been tested.
The cell culture medium was aspirated from the dishes (and properly stored). The dishes were washed (3x2 ml) with Locke's solution, then the solutions (1.5 ml) containing the compound to be tested were added, and incubated for 2 hrs in incubator at 37° C (5% CO2).
The treated cells were washed (3x2 ml) with Locke's solution + 10% fetal calf serum heat inactivated (without glutamic acid), then washed (3x2 ml) in Locke's solution in the absence of Mg^2+. […]
At the end of the incubation the cell viability measured by using the MTT colorimetric test was evaluated (Mosmann T., Rapid colorimetric assay for cellular growth and survival: application to proliferation and cytotoxicity assays. J. Immunol. Meth. 65, 55-63, 1983 and modified according to Skaper S.D. et al.: Death of cultured hippocampal pyramidal neurons induced by pathological activation of N-methyl-Daspartate receptors is reduced by monosialogangliosides. J. Pharm. and Exp. Ther. 259, 1, 452-457, 1991). The data are expressed as ED50 (µM).

[2] = test system: Mouse neuroblastoma cells C1300, Neuro-2A clone; assay: Neuritogenic activity (% of neurite-bearing cells under the optical microscope); format: cell-based; details: for EC50: neuroblastoma cells N2A, % of neurite-bearing cells, read-out: ED50 (µM) neuritogenic effect
Experimental: Mouse neuroblastoma cells C1300, Neuro-2A clone (obtained from American Cell Type Culture Collection - Bethesda, Md) have been seeded at a density of 10,000 cells/well (24-Falcon) in tissue culture medium containing Dulbecco's modified Eagle medium (DMEM, Gibco), 10% fetal calf serum heat inactivated (FCS, lot 7201 Seromed), penicillin (100 units per ml, Irvine) and L-glutamine (2 mM, Sigma). Cells have been incubated at 37° C for 24 hr, then the medium was withdrawn and substituted with 350 µl of fresh culture medium with and without the compounds to be tested.
The derivatives have been solubilized in chloroform/methanol (2/1) and then dried under a flow of nitrogen.
For the different compounds, consecutive dilutions in tissue culture medium (concentrations from 50 µM to 5 µM) were performed.
Culture dishes incubated with the tested compounds were analyzed under a phase contrast microscope (250x) : 9 optical fields were chosen with prefixed coordinates and photographed. Then, the total number of cells were counted, as well as the number of neurite-bearing cells (length at least double of the cell diameter) in blind on every picture. The percentage of neurite-bearing cells was determined following the counting of at least 100 cells, and the data were expressed by the respective ED50 (µM) (Facci L. et al.: Promotion of neuritogenesis in mouse neuroblastoma cells by exogenous ganglioside GM1. J. Neurochem. 229-305, 1984).

[3] = biological target: T1, CD4 (Homo sapiens, UniProt P01730); assay: Expression of the CD4 molecule in Molt 3 cells (flow cytofluorimetry with anti-CD4 mAb); format: cell-based; details: 60 minutes at 37° C
T1 construct: 100% of Molt 3 cells express CD4; host or cells: Molt 3 cells (human acute lymphoblastic leukemia T-cell line)
Source text: Molt 3 cells (American Type Culture Collection - Rockville, MD, USA) have been utilized, human tumoral cell lines derived from an acute lymphoblastic leukemia and formed by T lymphocytes expressing CD4 on their surface. Such a cell line was chosen due to the fact that it overlaps, as regards the expression of the CD4 molecule, human T lymphocytes obtained from peripheral blood. 100% of Molt 3 cells express CD4, whereas only part of human T lymphocytes from peripheral blood express CD4 in a proportion varying from subject to subject. The Molt 3 model has therefore the advantage of allowing a better experimental reliability.
Molt 3 cells (1x10^6) have been incubated with different concentrations of Liga 179 (from 1 µg/ml to 500 µg/ml) for 60 minutes at 37° C in buffered saline (PBS), with or without Fetal Calf Serum (FCS). When utilized, FCS was added at a concentration of 5 or 10 part/percentage (vol/vol). Following the incubation and the subsequent washing the percentage of cells expressing CD4 has been measured by flow cytofluorimetry using a monoclonal, fluoresceinated (mAb), specific for CD4 (DAKO T4, Dakopatts, Glostrup, Denmark) and a cytofluorimeter (EPICS V, Coulter Electronics, Hialeah, Florida, USA). In Table 4 are reported the data concerning the percentage of Molt 3 cells that express CD4, following the incubation with the compound under examination at the different concentrations utilized.

[4] = test system: cerebellar granule cells; details: read-out: ED50 (antineurotoxic activity); co-treatment with 100 µM glutamate, 30 minutes; MTT after 24 hours
Experimental: Thus, dilutions have been performed at different concentrations in Locke's solution (154 mM NaCl, 5.6 mM KCl, 3.6 mM NaHCO3, 2.3 mM CaCl2, 5.6 mM glucose, 4.6 mM Hepes, pH 7.4). Concentrations from 100 µM to 5 µM have been tested.
The cell culture medium was aspirated from the dishes (and properly stored). The dishes were washed (3x2 ml) with Locke's solution in the absence of Mg^2+. Then, 1.5 ml of Locke's solution (-Mg^2+) with or without 100 µM glutamate and with or without the compound to be tested were added. The incubation period lasted 30 minutes (37° C). Glutamate and the compound to be tested were then removed. The dishes were washed with Locke's solution in the presence of Mg^2+ (2x2 ml) and then incubated in the presence of the initial medium (properly stored) for 24 hours at 37° C in an incubator (5% CO2).
At the end of the incubation cell viability measured by means of the MTT colorimetric test was evaluated (Mosmann T.: Rapid colorimetric assay for cellular growth and survival: application to proliferation and cytotoxicity assays. J Immunol. Meth. 65, 55-63, 1983 and modified according to Skaper S.D. et al.: Death of cultured hippocampal pyramidal neurons induced by pathological activation of N-methyl-D-aspartate receptors is reduced by monosialogangliosides. J. Pharm. and Exp. Ther. 259,1, 452-457, 1991). Data were expressed as ED50 (µM).

Substance	EC50 [1] [µM]	% of neurite-bearing cells ([2]; dose of 25 µM)	EC50 [2] [µM]	% MOLT-3 cells expressing CD4 on the surface ([3]; 10 µg/ml, FCS 0 %, without compound 96.9) [%]	% MOLT-3 cells expressing CD4 on the surface ([3]; 50 µg/ml, FCS 0 %, without compound 96.9) [%]	% MOLT-3 cells expressing CD4 on the surface ([3]; 100 µg/ml, FCS 0 %, without compound 96.9) [%]	% MOLT-3 cells expressing CD4 on the surface ([3]; 100 µg/ml, FCS 5 %, without compound 98.6) [%]	% MOLT-3 cells expressing CD4 on the surface ([3]; 100 µg/ml, FCS 10 %, without compound 96.9) [%]	% MOLT-3 cells expressing CD4 on the surface ([3]; 200 µg/ml, FCS 5 %, without compound 98.6) [%]	% MOLT-3 cells expressing CD4 on the surface ([3]; 200 µg/ml, FCS 10 %, without compound 96.9) [%]	% MOLT-3 cells expressing CD4 on the surface ([3]; 500 µg/ml, FCS 5 %, without compound 98.6) [%]	% MOLT-3 cells expressing CD4 on the surface ([3]; 500 µg/ml, FCS 10 %, without compound 96.9) [%]	EC50 [4] [µM]
N-4-CHLOROBENZENESULFONYL-LYSOGM1 [Liga 123]	6	about 48%	12										
N-BENZENESULFONYL-LYSO GM1 [Liga 125]			25										
O-SULFATED N'SULFO-N'-LYSO-GM1 [Liga 179]				0	0	0	15.5	86.5	0	14.6	0	0	15
